Values of other authors in patent US20170128482A1, “MODIFIED RELEASE PHARMACEUTICAL COMPOSITIONS OF […] RIBAVIRIN” (SANOVEL ILAC SANAYI VE TICARET A.S., priority 2014, published 2017).

Experiments:
[1] = tested on: chronic hepatitis C (CHC) infections / HCV; conditions: ribavirin alone
[2] = tested on: Cytochrome P450 (CYP450)

1-β-Dribofuranosyl-1H-1,2,4-triazole-3-carboxamide [Ribavirin]
sustained virologic response [1]: did not produce any sustained virologic response | HCV RNA levels ([1]; during or after therapy): did not reduce | alanine aminotransferase (ALT) levels ([1]; during the course of treatment, some patients with CHC): transiently

CC(C)OC(=O)[C@H](C)N[P@](=O)(OC[C@H]1O[C@@H](n2ccc(=O)[nH]c2=O)[C@](C)(F)[C@@H]1O)Oc1ccccc1 [Sofosbuvir, (S)-Isopropyl 2-((S)-(((2R,3R,4R,5R)-5-(2,4-dioxo3,4-dihydropyrimidin-1(2H)-yl)-4-fluoro-3-hydroxy-4-methyltetrahydrofuran-2yl)methoxy)-(phenoxy)phosphorylamino)propanoate]
metabolism by Cytochrome P450 (CYP450) [2]: not metabolized
